Assay results as given in patent US20250092065A1, “2-(INDAZOL-5-YL)-6-(PIPERIDIN-4-YL)-1,7-NAPHTHYRIDINE DERIVATIVES AND RELATED COMPOUNDS AS MODULATORS FOR SPLICING NUCLEIC ACIDS AND FOR THE TREATMENT OF PROLIFERATIVE DISEASES” (REMIX THERAPEUTICS INC., priority 2022, published 2025).
Read-outs that look alike come from different tables or passages of the source.

Columns and labels:
HTT mRNA = experiment: RT-qPCR splicing assay, HTT mRNA canonical (CJ) and alternative (AJ) junction; assay type: cell-based, human; conditions: Homo sapiens; for AC50: HTT alternative junction mRNA, read-out: HTT AJ (increase in AJ mRNA, AC50)
Summary of the method: (§1)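 Canonical and alternative-exon junction isoforms were quantified by RT-qPCR in cell lysates, with ΔCt against a housekeeper (GAPDH/GUSB/PPIA), then ΔΔCt vs DMSO, converted to 2^(−ΔΔCt) and percent response. K562 or A673 cells were exposed for 24 h to 11 concentrations (3-fold, top final 10 uM).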

MYB mRNA = experiment: RT-qPCR splicing assay, MYB mRNA canonical (CJ) and alternative (AJ) junction; assay type: cell-based, human; conditions: Homo sapiens; for AC50: MYB alternative junction mRNA, read-out: MYB AJ (increase in AJ mRNA, AC50)
Summary of the method: as §1

SMN2 mRNA = experiment: RT-qPCR splicing assay, SMN2 mRNA; assay type: cell-based, human; conditions: Homo sapiens, canonical junction qPCR panel, Table 4; read-out: SMN2 IC50 (decrease in CJ mRNA levels)
Summary of the method: as §1

Target C = experiment: RT-qPCR canonical junction panel assay, Target C mRNA; assay type: cell-based; conditions: Table 4, read-out: Target C IC50 (decrease in CJ mRNA levels)
Summary of the method: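 IC50 is the concentration giving 50% CJ decrease, from a 4-parameter logistic fit of percent response; response derived from ΔΔCt against housekeeper and DMSO over a fixed ΔCt window, with canonical exon-junction qPCR in compound-treated K562 or A673 cells.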

K562 cells = experiment: Cell Titer Glo 2.0 cell viability (toxicity) assay, K562; conditions: 500 cells/well, 72 hours
[1] = HTT canonical junction mRNA, RT-qPCR, read-out: HTT CJ (decrease in CJ mRNA levels, IC50)
[2] = canonical junction qPCR panel, Table 4, read-out: HTT IC50 (decrease in CJ mRNA levels)
[3] = MYB canonical junction mRNA, RT-qPCR, read-out: MYB CJ (decrease in CJ mRNA levels, IC50)
[4] = canonical junction qPCR panel, Table 4, read-out: MYB IC50 (decrease in CJ mRNA levels)

SMILES | AC50 (HTT mRNA; RT-qPCR) | IC50 (HTT mRNA; [1]) | IC50 (HTT mRNA; [2]) | AC50 (MYB mRNA; RT-qPCR) | IC50 (MYB mRNA; [3]) | IC50 (MYB mRNA; [4]) | IC50 (SMN2 mRNA) | IC50 (Target C) | Effect of Exemplary Compounds on Cell Viability, K562 (K562 cells)
Cn1cc2cc(-c3ncc4nc(N5CC[C@@H](N)C5)ccc4n3)c(O)c(F)c2n1 (single isomer, unassigned) [Compound 380] | 100 to 1000 nM | < 100 nM | < 100 nM | < 100 nM | < 100 nM | < 100 nM | < 100 nM | 1000 to 10000 nM | A (A represents <100 nM)
C[C@H]1C[C@@H](c2ccc3nc(-c4cc5cn(C)nc5c(F)c4O)ccc3n2)CCN1 (single isomer, unassigned) [Compound 383] | < 100 nM | < 100 nM | < 100 nM | < 100 nM | < 100 nM | < 100 nM | < 100 nM | 100 to 1000 nM | A (A represents <100 nM)
Cn1cc2cc(-c3ccc4nc(C5CCNC[C@H]5O)ccc4n3)c(O)cc2n1 (single isomer, unassigned) [Compound 386] | > 10000 nM | > 10000 nM | > 10000 nM | 1000 to 10000 nM | 100 to 1000 nM | 100 to 1000 nM | < 100 nM | > 10000 nM | C (C represents 1000-9999 nM)
Cn1cc2cc(-c3ccc4nc(N5CC[C@@H](NC(C)(C)C)C5)ccc4n3)c(O)c(F)c2n1 (single isomer, unassigned) [Compound 391] | < 100 nM | < 100 nM | < 100 nM | < 100 nM | < 100 nM | < 100 nM | < 100 nM | < 100 nM | A (A represents <100 nM)
Cn1cc2cc(-c3ccc4nc(N5CC[C@H](NC(C)(C)C)C5)ccc4n3)c(O)c(F)c2n1 (single isomer, unassigned) [Compound 392] | < 100 nM | < 100 nM | < 100 nM | < 100 nM | < 100 nM | < 100 nM | < 100 nM | < 100 nM | A (A represents <100 nM)
Cc1c(O)c(-c2ncc3nc([C@@H]4CCNC4)ccc3n2)cc2cn(C)nc12 (single isomer, unassigned) [Compound 398] | 1000 to 10000 nM | 1000 to 10000 nM | 1000 to 10000 nM | 1000 to 10000 nM | 1000 to 10000 nM | 1000 to 10000 nM | < 100 nM | > 10000 nM | C (C represents 1000-9999 nM)
Cc1nc2c(C)c(O)c(-c3ccc4nc(N5CC[C@@H](NC6CC6)C5)ncc4n3)cc2o1 (single isomer, unassigned) [Compound 432] | < 100 nM | < 100 nM | < 100 nM | 100 to 1000 nM | < 100 nM | < 100 nM | < 100 nM | < 100 nM | B (B represents 100-1000 nM)
Cc1nc2cc(O)c(-c3ccc4nc(N5CC[C@@H](NC6CC6)C5)ncc4n3)cc2o1 (single isomer, unassigned) [Compound 434] | < 100 nM | < 100 nM | < 100 nM | 100 to 1000 nM | 100 to 1000 nM | 100 to 1000 nM | < 100 nM | 100 to 1000 nM | B (B represents 100-1000 nM)
Cc1nc2c(C)c(O)c(-c3ccc4cc(N5CC[C@@H](NC(C)(C)C)C5)ncc4n3)cc2o1 (single isomer, unassigned) [Compound 444] | 100 to 1000 nM | < 100 nM | < 100 nM | 100 to 1000 nM | 100 to 1000 nM | 100 to 1000 nM | < 100 nM | 100 to 1000 nM | B (B represents 100-1000 nM)
